Assay results reported in US12370161B2, “Composition for treating atopy or pruritus comprising N-acetyl or N-acyl amino acid” (STEMDR INC., priority 2017, dated 2025).
Entries after “also recorded” stand apart in the source; their conditions may differ.

What was measured:
[1] = tested on: atopic dermatitis-induced Balb/c mouse; assay: SCORAD clinical skin score, DNFB-induced atopic dermatitis in Balb/c mouse; format: in vivo; design: key to Mouse 1 Sum / Mean (of Sum, SCORAD) / Mouse 2 Sum / Mouse 3 Sum: sum of symptom grades, each 0 (none) to 3 (severe); details: for skin-soothing and atopic dermatitis-treating effect (SCORAD, Table 1, FIG. 2A): Balb/c atopic dermatitis model, 0.1% topical, P<0.05 versus DNFB group; for apparent degree of dermatitis (back skin images, FIG. 2B): Balb/c, treated for 7 days, day 29; for Mouse 1 Erythema / Mouse 1 Abrasion / Mouse 1 Dryness / Mouse 1 Edema / Mouse 1 Eschar / Mouse 1 Lichenification / Mouse 1 Sum / Mouse 2 Abrasion / Mouse 2 Dryness / Mouse 2 Edema / Mouse 2 Erythema / Mouse 2 Eschar / Mouse 2 Lichenification / Mouse 2 Sum / Mouse 3 Abrasion / Mouse 3 Dryness / Mouse 3 Edema / Mouse 3 Erythema / Mouse 3 Eschar / Mouse 3 Lichenification / Mouse 3 Sum / Mean (of Sum, SCORAD): DNFB Balb/c; for Mouse 1 Erythema: 0.1% in PBS, 200 μL on back skin daily day 22-28, grade 0-3 (0 no symptom, 1 mild, 2 moderate, 3 severe); for Mouse 1 Abrasion / Mouse 1 Dryness / Mouse 1 Edema / Mouse 1 Eschar / Mouse 1 Lichenification / Mouse 1 Sum / Mouse 2 Abrasion / Mouse 2 Dryness / Mouse 2 Edema / Mouse 2 Erythema / Mouse 2 Eschar / Mouse 2 Lichenification / Mouse 2 Sum / Mouse 3 Abrasion / Mouse 3 Dryness / Mouse 3 Edema / Mouse 3 Erythema / Mouse 3 Eschar / Mouse 3 Lichenification / Mouse 3 Sum / Mean (of Sum, SCORAD): 0.1% topical day 22-28; for Mouse 1 Abrasion / Mouse 1 Dryness / Mouse 1 Edema / Mouse 1 Eschar / Mouse 1 Lichenification / Mouse 2 Abrasion / Mouse 2 Dryness / Mouse 2 Edema / Mouse 2 Erythema / Mouse 2 Eschar / Mouse 2 Lichenification / Mouse 3 Abrasion / Mouse 3 Dryness / Mouse 3 Edema / Mouse 3 Erythema / Mouse 3 Eschar / Mouse 3 Lichenification: grade 0-3; for Mouse 1 Sum / Mouse 2 Sum / Mouse 3 Sum: overall dermatitis score, sum of individual scores; for Mean (of Sum, SCORAD): mean of 3 mice
In short: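 Mice sensitized with 0.35% DNFB on shaved back, then challenged with 0.25% DNFB on days 6–27; 0.1% N-acetyl/N-acylamino acid in PBS applied topically daily days 22–28, 12 h apart from DNFB. Blinded SCORAD: six symptoms each graded 0–3, summed.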

[2] = tested on: atopic dermatitis-induced Nc/Nga mouse; assay: SCORAD clinical skin score, DNFB-induced atopic dermatitis in Nc/Nga mouse; format: in vivo; details: for atopic dermatitis-treating effect (SCORAD, FIG. 3A) / dermatitis-treating effect of L-, L/D- and D-form (FIG. 6): Nc/Nga atopic dermatitis model; for atopic dermatitis-treating effect (SCORAD, FIG. 3A): 0.1% topical; for dermatitis-treating effect of L-, L/D- and D-form (FIG. 6): 0.1%; for effect in Nc/Nga model (back skin images, FIG. 3B): treated for 7 days, day 22
Experimental: In order to establish a model more similar to an atopy model than that of the Balb/c mice, atopy was induced in Nc/Nga mouse mice. Specifically, after inducing DNFB sensitization by applying 100 μL of 0.35% 2,4-dinitrofluorobenzene (DNFB) in acetone/olive oil (3:1) on the shaved back skin, dermatitis was induced by applying 100 μL of 0.15% DNFB for 4-20 days, every other day. Control mice were treated with a vehicle of the same volume (FIG. 1B).
After dissolving an N-acetyl or N-acylamino acid in phosphate-buffered saline to 0.1%, 200 μL of the solution was applied on the back skin of the mice every day, from day 22 until day 28 for the Balb/c atopic dermatitis model, and from day 15 until day 21 for the Nc/Nga atopic dermatitis model. When the N-acetyl or N-acylamino acid was treated together with DNFB, they were treated with 12-hour intervals in order to avoid direct reaction between the DNFB and the N-acetyl or N-acylamino acid. A non-treated group and a 2,4-dinitrofluorobenzene (DNFB) group were treated with phosphate-buffered saline of the same volume (FIGS. 1A-1B). As the N-acetylamino acid, products purchased from Sigma-Aldrich (USA), MP scientific (USA), TCI (Tokyo Chemical Industry, Japan), Santacruz (USA), etc. were used without purification.
The degree of skin soothing and the severity of atopic dermatitis were evaluated macroscopically according to the previously established SCORAD (SCORing Atopic Dermatitis) method (Oranje et al., 2007). The degree of symptoms such as edema, erythema, eschar, dryness, abrasion, lichenification, etc. was graded from 0 to 3 (0, no symptom; 1, mild; 2, moderate; 3, severe). The overall dermatitis score was determined from the sum of all individual scores (Table 1). The assessment was performed by an investigator who was blind to the grouping of the mice.
Skin-soothing effect and the severity of dermatitis were evaluated for the acyl derivatives of tryptophan synthesized in Example 9, the acyl derivative of alanine synthesized in Example 10 and N-palmitoylalanine (purchased from Santacruz (USA)) according to the method of Example 4 (Table 2)

[3] = tested on: atopic dermatitis-induced Nc/Nga mouse; assay: Hematoxylin/eosin staining of back skin tissue, epidermal and dermal thickness; format: in vivo; details: 5 μm slices
Excerpt: After extracting back skin tissues of the atopic dermatitis-induced and drug-treated Nc/Nga mice of Example 2, the tissues were fixed with an Accustain formalin-free fixative solution and then prepared into paraffin blocks. The paraffin blocks were sliced to a thickness of 5 μm and the change in the thickness of the epidermal and dermal layers was observed by staining with hematoxylin/eosin.

IgE [4] = assay: Serum IgE level by ELISA, Balb/c; format: in vivo, mouse; details: atopy-induced Balb/c mice
Experimental: (§1) After treatment with the test substance, the mice were sacrificed and blood was taken from the heart. After isolating serum from the blood, IgE level was measured. Specifically, after attaching antibodies diluted in a buffer solution onto a 96-well plate and incubating overnight at 4° C., experiment was conducted using an IgE ELISA kit (BD Biosciences, San Diego, CA) according to the provided manual. The quantity of the IgE protein was determined by measuring absorbance at 450 nm using a microplate reader.

IgE [5] = assay: Serum IgE level by ELISA, Nc/Nga; format: in vivo, mouse; details: atopy-induced Nc/Nga mice
Experimental: as §1

IL4 [6] = assay: IL4 mRNA in skin tissue by quantitative real-time PCR, Balb/c; format: in vivo, mouse; details: atopy-induced Balb/c mice, normalized to β-actin
Experimental: (§2) After isolating total RNA from the atopy-induced skin tissue using 500 μL of Trizol (Life Technologies, USA) according to the manufacturer's protocol and synthesizing cDNA using the Superscript III reverse transcriptase (Life Technologies, USA), real-time PCR was conducted by reacting with the primers of IL4 and interferon γ to be analyzed. The real-time PCR was conducted on a StepOne Plus PCR cycler (Applied Biosystems) using SYBR Green (Applied Biosystems, Foster City, CA). The mRNA expression data were analyzed by the ΔΔCT method and were normalized to β-actin for gene detection. The primers necessary for the real-time PCR were purchased from Qiagen (USA). […] IL4 is known to induce TH2 response and interferon γ is known to induce TH1 response.

interferon γ [7] = assay: Interferon γ mRNA in skin tissue by quantitative real-time PCR, Balb/c; format: in vivo, mouse; details: atopy-induced Balb/c mice, normalized to β-actin
Experimental: as §2

IL4 [8] = assay: IL4 mRNA in skin tissue by quantitative real-time PCR, Nc/Nga; format: in vivo, mouse; details: atopy-induced Nc/Nga mice, normalized to β-actin
Experimental: as §2

interferon γ [9] = assay: Interferon γ mRNA in skin tissue by quantitative real-time PCR, Nc/Nga; format: in vivo, mouse; details: atopy-induced Nc/Nga mice, normalized to β-actin
Experimental: as §2

[10] = tested on: pruritus caused by atopic contact dermatitis; assay: Pruritus inhibition test, pruritus induced with DNFB; format: in vivo, mouse; details: 0.1% in physiological saline applied once onto right ear, pruritus measured for 1 hour
Experimental: In order to investigate whether L-form, LID-form and D-form N-acetylalanine, N-acetylarginine, N-acetylthreonine and N-acetyltryptophan inhibit pruritus caused by atopic contact dermatitis, 20 μL of 0.1% 2,4-dinitrofluorobenzene (DNFB) solution and 0.1% N-acetylamino acid dissolved in physiological saline were applied once onto the right ear 10 minutes after the final treatment (day 27) with 2,4-dinitrofluorobenzene (DNFB) (Physiological saline was applied to a negative control group), and then pruritus was measured for 1 hour. FIG. 7 compares the pruritus-relieving effect of L-form N-acetylalanine, N-acetylthreonine, N-acetylarginine and N-acetyltryptophan with D/L-form and D-form N-acetylalanine and N-acetyltryptophan at 0.1% after the induction of pruritus with DNFB.

[11] = listed as L-form N-acetylalanine
[12] = listed as L-form N-acetyltryptophan

SMILES | skin-soothing and atopic dermatitis-treating effect (SCORAD, Table 1, FIG. 2A) [1] | apparent degree of dermatitis (back skin images, FIG. 2B) [1] | Mouse 1 Erythema [1] | Mouse 1 Abrasion [1] | Mouse 1 Dryness [1] | Mouse 1 Edema [1] | Mouse 1 Eschar [1] | Mouse 1 Lichenification [1] | Mouse 1 Sum [1] | Mouse 2 Abrasion [1] | Mouse 2 Dryness [1] | Mouse 2 Edema [1] | Mouse 2 Erythema [1] | Mouse 2 Eschar [1] | Mouse 2 Lichenification [1] | Mouse 2 Sum [1] | Mouse 3 Abrasion [1] | Mouse 3 Dryness [1] | Mouse 3 Edema [1] | Mouse 3 Erythema [1] | other results
CC(=O)N[C@@H](C)C(=O)O [N-acetyl-L-alanine] | significant skin-soothing and atopic dermatitis-treating effects; also recorded: significant atopic dermatitis-treating effect | decreased remarkably | 1 | 1 | 2 | 1 | 1 | 0 | 6 | 1 | 0 | 1 | 1 | 1 | 0 | 4 | 1 | 0 | 1 | 1 | Mouse 3 Eschar [1]: 1; Mouse 3 Lichenification [1]: 1; Mouse 3 Sum [1]: 5; Mean (of Sum, SCORAD) [1]: 5; atopic dermatitis-treating effect (SCORAD, FIG. 3A) [2]: showed atopic dermatitis-treating effect; dermatitis-treating effect of L-, L/D- and D-form (FIG. 6) [2, 11]: remarkable effect; effect in Nc/Nga model (back skin images, FIG. 3B) [2]: remarkable effect; thickness of the epidermal and dermal layers (FIG. 3C) [3]: significantly decreased; serum IgE level (FIG. 4A) (IgE [4]): significant decrease; serum IgE level (FIG. 4B) (IgE [5]): significant decrease; level of IL4 in the skin tissue (FIG. 5A) (IL4 [6]): significantly decreased; level of interferon γ in the skin tissue (FIG. 5A) (interferon γ [7]): significantly decreased; level of IL4 in the skin tissue (FIG. 5B) (IL4 [8]): significantly decreased; level of interferon γ in the skin tissue (FIG. 5B) (interferon γ [9]): significantly decreased; pruritus-relieving effect (FIG. 7) [10, 11]: significantly inhibited pruritus
CC(=O)N[C@@H](Cc1c[nH]c2ccccc12)C(=O)O [N-acetyl-L-tryptophan] | significant skin-soothing and atopic dermatitis-treating effects; also recorded: significant atopic dermatitis-treating effect | decreased remarkably | 1 | 1 | 0 | 1 | 1 | 1 | 5 | 0 | 1 | 1 | 0 | 1 | 0 | 3 | 2 | 0 | 0 | 0 | Mouse 3 Eschar [1]: 2; Mouse 3 Lichenification [1]: 0; Mouse 3 Sum [1]: 4; Mean (of Sum, SCORAD) [1]: 4; atopic dermatitis-treating effect (SCORAD, FIG. 3A) [2]: showed atopic dermatitis-treating effect; dermatitis-treating effect of L-, L/D- and D-form (FIG. 6) [2, 12]: remarkable effect; effect in Nc/Nga model (back skin images, FIG. 3B) [2]: remarkable effect; thickness of the epidermal and dermal layers (FIG. 3C) [3]: significantly decreased; serum IgE level (FIG. 4A) (IgE [4]): significant decrease; serum IgE level (FIG. 4B) (IgE [5]): significant decrease; level of IL4 in the skin tissue (FIG. 5A) (IL4 [6]): significantly decreased; level of interferon γ in the skin tissue (FIG. 5A) (interferon γ [7]): significantly decreased; level of IL4 in the skin tissue (FIG. 5B) (IL4 [8]): significantly decreased; level of interferon γ in the skin tissue (FIG. 5B) (interferon γ [9]): significantly decreased; pruritus-relieving effect (FIG. 7) [10, 12]: significantly inhibited pruritus
